The numbers were not newly measured in patent publication US9226984B2, “Entrapment of radionuclides in nanoparticle compositions” (Technical University of Denmark and Rigshospitalet, priority 2010, dated 2016), which cites them from elsewhere.

SMILES strings stand for the structures.

The conditions of the series: ionophore-assisted loading.

In the case of `Oc1cccc2cccnc12` [oxine, 8-hydroxyquinoline], the “64Cu2+ retention of liposomes loaded with the ionophore” value is “unstable liposomes”.
